Several values for one entry are separate records, joined by “and”; a condition that tells them apart may be missing. Equal values may be shown once.
Test system: 282377-053-R-J1-PDC complex spheroid viability
Experiment: Anticancer human tumor 282377-053-R-J1-PDC patient-derived colon adenocarcinoma cell line growth inhibition [POLQ]
Conditions: for viability, T/C: stronger effect = lower value
Protocol: Multicellular complex tumor spheroid response to Polymerase (POL) inhibitors (novobiocin, ART-558, RP6685) in combination with a variety of drugs and investigational agents in selected tumor cell lines
The POL inhibitors (novobiocin, ART-558, and RP6685) were evaluated both individually and in combination with standard of care and investigational anticancer small molecules within a complex spheroid model of solid tumors. . Complex spheroids include a stromal component modeled by human endothelial cells (HUVEC) and fibroblasts modeled by human mesenchymal stem cells (MSCs). The concentration ranges selected for each drug and investigational agent were based upon clinically achievable concentrations if the clinical Cmax of the agent was known.
Compounds. The drugs and investigational agents: novobiocin (NSC847541), ART-558 (NSC835418), RP-6685 (NSC848927), peposertib (NSC802822), ceralasertib (NSC780249), elimusertib (NSC800525), camonsertib (NSC841442), AZD-1390 (NSC803789), olaparib (NSC753686), talazoparib (NSC767125), rucaparib (NSC756644), sotorasib (NSC818433), MRTX-1133 (NSC836407), SN-38 (NSC673596), topotecan (NSC609699), epotoside (NSC141540), doxorubicin (NSC123127), gemcitabine (NSC613327), 5-fluorouracil (NSC19893), paclitaxel (NSC125973), vemurafenib (NSC761431), MSA-2 (NSC828583), SN-011 (NSC837082), adavosertib (NSC754352), prexasertib (NSC758257), carboplatin (NSC241240) and oxaliplatin (NSC266046), were obtained from the National Cancer Institute (NCI) Developmental Therapeutics Program Chemical Repository (21). The FDA-approved anticancer drug set is available from the Developmental Therapeutics Program at https://dtp.cancer.gov/organization/dscb/obtaining/. […] The stock solutions were prepared in dimethyl sulfoxide (DMSO, Sigma-Aldrich, St. Louis, MO, cat. D2650), except for the platinum compounds which were prepared in saline (Quality Biological, Gaithersburg, MD, cat. 114-055-101), at 800-fold the tested concentration and stored at -70 degrees C prior to their use. All drugs and investigational agents were tested over a range starting from a high concentration at or near the clinical Cmax and decreasing in half-log increments. If the clinical Cmax for an agent had not been determined, the highest concentration tested was 10 microM, except for SN-38, which was tested at a high concentration of 1 microM.
Cell Culture. All cells were maintained in an incubator at 37 degrees C and 5% CO2 with 95% humidity. The PDC lines were cultured according to standard operating procedures established by the NCI PDMR (https://pdmr.cancer.gov). Table 3 of the manuscript, lists the cell lines along with the number of the three cell types plated to form the mct-spheroids and media for tumor cell growth. After thawing, all PDC lines, except 997537-175-T-J1-PDC and 415267-285-R-J2-PDC, were cultured in Matrigel-coated flasks prepared with a working solution of 1X Ham's F-12 nutrient mix, without supplementation (Thermo Fisher Scientific, cat. 11765054), 100 U/mL penicillin-streptomycin (Thermo Fisher Scientific, cat. 15140122), and 2.5% Matrigel (Corning Inc., Corning, NY, cat. 354248) for the first three passages. The two PDC lines 997537-175-T-J1-PDC and 415267-285-R-J2-PDC were cultured on uncoated flasks. The 857933-349-R-J2-PDC line was cultured in 6C/Colon 1B media containing advanced DMEM/F-12 (Thermo Fisher Scientific, cat. 12634028), 10 mM HEPES (Thermo Fisher Scientific, cat. 15630080), 1X GlutaMAX supplement (Thermo Fisher Scientific, cat. 35050061), 0.1 mg/mL primocin (InvivoGen, San Diego, CA, cat. ant-pm-2), 10% defined fetal bovine serum, heat inactivated (HyClone Laboratories Inc., Logan, UT, cat. SH30070.03HI), 50% L-WRN conditioned media (ATCC, cat. CRL-3276), 1.25 mM N-Acetyl-L-cysteine (Sigma-Aldrich, cat. A9165), 10 mM nicotinamide (Sigma-Aldrich, cat. N0636), 1X B-27 supplement (Thermo Fisher Scientific, cat. 17504044), 1X N-2 supplement (Thermo Fisher Scientific, cat. […]

[1] = curve of first compound, second compound 0.0316 µM
[2] = curve of first compound, second compound 0.1 µM
[3] = curve of first compound, second compound 0.316 µM
[4] = curve of first compound, second compound 1 µM
[5] = curve of first compound, second compound 3.16 µM
[6] = curve of first compound, second compound 10 µM
[7] = second compound 0.0316 µM, first compound 0.0316 µM
[8] = second compound 0.0316 µM, first compound 0.1 µM
[9] = second compound 0.0316 µM, first compound 0.316 µM
[10] = second compound 0.0316 µM, first compound 1 µM
[11] = second compound 0.0316 µM, first compound 3.16 µM
[12] = second compound 0.0316 µM, first compound 10 µM
[13] = second compound 0.1 µM, first compound 0.0316 µM
[14] = second compound 0.1 µM, first compound 0.1 µM
[15] = second compound 0.1 µM, first compound 0.316 µM
[16] = second compound 0.1 µM, first compound 1 µM
[17] = second compound 0.1 µM, first compound 3.16 µM
[18] = second compound 0.1 µM, first compound 10 µM
[19] = second compound 0.316 µM, first compound 0.0316 µM
[20] = second compound 0.316 µM, first compound 0.1 µM
[21] = second compound 0.316 µM, first compound 0.316 µM
[22] = second compound 0.316 µM, first compound 1 µM
[23] = second compound 0.316 µM, first compound 3.16 µM
[24] = second compound 0.316 µM, first compound 10 µM
[25] = second compound 1 µM, first compound 0.0316 µM
[26] = second compound 1 µM, first compound 0.1 µM
[27] = second compound 1 µM, first compound 0.316 µM
[28] = second compound 1 µM, first compound 1 µM
[29] = second compound 1 µM, first compound 3.16 µM
[30] = second compound 1 µM, first compound 10 µM
[31] = second compound 3.16 µM, first compound 0.0316 µM
[32] = second compound 3.16 µM, first compound 0.1 µM
[33] = second compound 3.16 µM, first compound 0.316 µM
[34] = second compound 3.16 µM, first compound 1 µM
[35] = second compound 3.16 µM, first compound 3.16 µM
[36] = second compound 3.16 µM, first compound 10 µM
[37] = second compound 10 µM, first compound 0.0316 µM
[38] = second compound 10 µM, first compound 0.1 µM
[39] = second compound 10 µM, first compound 0.316 µM
[40] = second compound 10 µM, first compound 1 µM
[41] = second compound 10 µM, first compound 3.16 µM
[42] = second compound 10 µM, first compound 10 µM
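Further: spheroids exposed to compounds for seven days.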
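Wherever viability, T/C is given: 100% = DMSO vehicle control viability.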

CCc1cc2c(N3CCc4c(cc(Cn5ccnc5)cc4-c4cn(C)nc4C(F)(F)F)C3=O)ccnc2c(OC)n1 + Cc1cccc(N(C)C(=O)C2C(O)CCN2c2nc(C)cc(C(F)(F)F)c2C#N)c1
IC50 [1]: > 10 µM
IC50 [2]: > 10 µM
IC50 [3]: > 10 µM
IC50 [4]: > 10 µM
IC50 [5]: > 10 µM
IC50 [6]: > 10 µM
viability, T/C [7]: 108%
viability, T/C [8]: 94.1%
viability, T/C [9]: 91%
viability, T/C [10]: 110%
viability, T/C [11]: 104%
viability, T/C [12]: 106%
viability, T/C [13]: 93.4%
viability, T/C [14]: 90.9%
viability, T/C [15]: 85.8%
viability, T/C [16]: 91.4%
viability, T/C [17]: 103%
viability, T/C [18]: 121%
viability, T/C [19]: 95%
viability, T/C [20]: 94.9%
viability, T/C [21]: 89.8%
viability, T/C [22]: 86.1%
viability, T/C [23]: 104%
viability, T/C [24]: 93.8%
viability, T/C [25]: 95.2%
viability, T/C [26]: 87.6%
viability, T/C [27]: 104%
viability, T/C [28]: 101%
viability, T/C [29]: 107%
viability, T/C [30]: 109%
viability, T/C [31]: 98.9%
viability, T/C [32]: 91.6%
viability, T/C [33]: 101%
viability, T/C [34]: 99.6%
viability, T/C [35]: 115%
viability, T/C [36]: 116%
viability, T/C [37]: 98.9%
viability, T/C [38]: 95.6%
viability, T/C [39]: 108%
viability, T/C [40]: 96.4%
viability, T/C [41]: 111%
viability, T/C [42]: 124%

C=CC(=O)N1CCN(c2nc(=O)n(-c3c(C)ccnc3C(C)C)c3nc(-c4c(O)cccc4F)c(F)cc23)C(C)C1 (stereo unspecified) + Nc1ccc(C#CCN(C(=O)Cc2ncc(C(F)(F)F)cc2C(F)(F)F)c2ccc(F)cc2)nn1
IC50 [1]: > 10 µM
IC50 [2]: > 10 µM
IC50 [3]: > 10 µM
IC50 [4]: > 10 µM
IC50 [5]: > 10 µM
IC50 [6]: > 10 µM
viability, T/C [7]: 95%
viability, T/C [8]: 107%
viability, T/C [9]: 94%
viability, T/C [10]: 90.8%
viability, T/C [11]: 104%
viability, T/C [12]: 97.5%
viability, T/C [13]: 95.3%
viability, T/C [14]: 107%
viability, T/C [15]: 91%
viability, T/C [16]: 99.7%
viability, T/C [17]: 113%
viability, T/C [18]: 83.4%
viability, T/C [19]: 90.4%
viability, T/C [20]: 88.6%
viability, T/C [21]: 100%
viability, T/C [22]: 98.7%
viability, T/C [23]: 101%
viability, T/C [24]: 94.9%
viability, T/C [25]: 108%
viability, T/C [26]: 90.9%
viability, T/C [27]: 111%
viability, T/C [28]: 91.3%
viability, T/C [29]: 97.7%
viability, T/C [30]: 86.9%
viability, T/C [31]: 106%
viability, T/C [32]: 100%
viability, T/C [33]: 92.8%
viability, T/C [34]: 108%
viability, T/C [35]: 91%
viability, T/C [36]: 87.9%
viability, T/C [37]: 112%
viability, T/C [38]: 107%
viability, T/C [39]: 114%
viability, T/C [40]: 114%
viability, T/C [41]: 98.7%
viability, T/C [42]: 106%

COc1ccc([C@@H](O)c2cc(-c3ncnc4cc(N5CCOCC5)ccc34)c(F)cc2Cl)nn1
viability, T/C (compound 0.0316 µM): 95.7% and 94.3% and 98.1%
viability, T/C (compound 0.1 µM): 92.2% and 99.3% and 91.8%
viability, T/C (compound 0.316 µM): 112% and 94.1% and 106%
viability, T/C (compound 1 µM): 88.9% and 98.7% and 102%
viability, T/C (compound 3.16 µM): 82.5% and 101% and 87.2%
viability, T/C (compound 10 µM): 71.8% and 84.8% and 82.2%
IC50 (curve of compound): > 10 µM

Source: PubChem BioAssay AID1963852 (Molecular Pharmacology Branch, DTP, NCI, 2024)
